Assay results: US20260294838A1, “ACTIVATION ENHANCER AND FOOD AND DRINK FOR ENHANCING ACTIVATION” (Asahi Group Holdings, Ltd., priority 2023, published 2026)

Tests used:
EEG = experiment: Reference Example: EEG test in the same manner as in Test Example 4; type: in vivo, human (healthy Japanese men and women, 20 to 39 years old); conditions: 10-ppm aqueous solution, same manner as Test Example 4 (EEG), 20 subjects
Description: Each subject was instructed to wear an electroencephalograph (model number: HARU-2, manufactured by PGV Co., Ltd.), and to wait for 5 minutes at rest, and then asked to answer a questionnaire for one minute. Subsequently, each subject was instructed to ingest 200 mL of the test beverage within 5 minutes, and thereafter, to wait at rest except for answering the questionnaire for one minute immediately after the ingestion, 15 minutes after the ingestion, 30 minutes after the ingestion and 45 minutes after the ingestion. The EEG were measured from before the ingestion of the test beverage until 45 minutes after the ingestion. The same measurement was carried out one more time. The beverage to be ingested was selected at random for each subject, and each subject was instructed to ingest each beverage once.
In the analysis of EEG, the data obtained during the questionnaires and the ingestion that affect the EEG were excluded from the analysis target. The EEG measured during each waiting time at rest before and after the ingestion were analyzed using the MNE library (ver. 1.3.0) in Python language, and the B/a ratio was calculated from the two-minute data. No exclusion of target data was allowed, and all cases were analyzed as the target.
The test was carried out in the same manner as in Test Example 4, using a 10-ppm aqueous solution of each of: geraniol, which is the isomer of nerol; α-terpineol, which is a degradation product of nerol; and linalool, on 20 healthy Japanese men and women with ages ranging from 20 years old to 39 years old, as the subjects. As a result, the effect of enhancing activation was not observed in any of geraniol, α-terpineol and linalool.

brain blood flow = conditions: humans exposed to nerol and geraniol (aroma components of lemongrass extract); cited from earlier work
rats = conditions: cited from earlier work

| Compound | effect of enhancing activation (EEG) | amount of brain blood flow (brain blood flow) | acceptable daily intake (ADI) per person (rats; calculated, assuming an adult with a body weight of 50 kg) [mg/person/day] | acceptable daily intake (ADI) (rats; calculated) [mg/kg/day] | no-observed adverse effect level (NOAEL), lowest value (rats; repeated dose toxicity study on rats) [mg/kg/day] |
| --- | --- | --- | --- | --- | --- |
| CC(C)=CCC/C(C)=C/CO [geraniol] | not observed | increased significantly |  |  |  |
| C=CC(C)(O)CCC=C(C)C (centres unmarked) [linalool] | not observed |  |  |  |  |
| CC(C)=CCC/C(C)=C\CO [nerol, (Z)-3,7-dimethyl-2,6-octadien-1-ol] |  | increased significantly | 95.5 | 1.91 | 191 |
| CC1=CCC(C(C)(C)O)CC1 (stereo not drawn) [α-terpineol] | not observed |  |  |  |  |
